Results taken from ChEMBL document CHEMBL3045195, “Comparison of the activity of non-steroidal ecdysone agonists between dipteran and lepidopteran insects, using cell-based EcR reporter assays” (Pest Manag Sci, 2010).
Active and inactive are the calls of the source. The rule behind the calls is not given here.

Experiments:
[1] = biological target: T1, Ecdysone receptor (Drosophila melanogaster) (UniProt P34021+P20153); assay: Agonist activity at ecdysone receptor in Drosophila melanogaster S2 cells at 100 uM after 24 hr by luciferase reporter gene assay relative to 20-hydroxyecdysone; type: cell-based
Ecdysone receptor [2] = biological target: T2, Ecdysone receptor (Drosophila melanogaster, UniProt P20153+P34021); assay: (§1) Agonist activity at ecdysone receptor in Drosophila melanogaster S2 cells after 24 hr by luciferase reporter gene assay; type: cell-based
T2 sequence (P34021 whole entry): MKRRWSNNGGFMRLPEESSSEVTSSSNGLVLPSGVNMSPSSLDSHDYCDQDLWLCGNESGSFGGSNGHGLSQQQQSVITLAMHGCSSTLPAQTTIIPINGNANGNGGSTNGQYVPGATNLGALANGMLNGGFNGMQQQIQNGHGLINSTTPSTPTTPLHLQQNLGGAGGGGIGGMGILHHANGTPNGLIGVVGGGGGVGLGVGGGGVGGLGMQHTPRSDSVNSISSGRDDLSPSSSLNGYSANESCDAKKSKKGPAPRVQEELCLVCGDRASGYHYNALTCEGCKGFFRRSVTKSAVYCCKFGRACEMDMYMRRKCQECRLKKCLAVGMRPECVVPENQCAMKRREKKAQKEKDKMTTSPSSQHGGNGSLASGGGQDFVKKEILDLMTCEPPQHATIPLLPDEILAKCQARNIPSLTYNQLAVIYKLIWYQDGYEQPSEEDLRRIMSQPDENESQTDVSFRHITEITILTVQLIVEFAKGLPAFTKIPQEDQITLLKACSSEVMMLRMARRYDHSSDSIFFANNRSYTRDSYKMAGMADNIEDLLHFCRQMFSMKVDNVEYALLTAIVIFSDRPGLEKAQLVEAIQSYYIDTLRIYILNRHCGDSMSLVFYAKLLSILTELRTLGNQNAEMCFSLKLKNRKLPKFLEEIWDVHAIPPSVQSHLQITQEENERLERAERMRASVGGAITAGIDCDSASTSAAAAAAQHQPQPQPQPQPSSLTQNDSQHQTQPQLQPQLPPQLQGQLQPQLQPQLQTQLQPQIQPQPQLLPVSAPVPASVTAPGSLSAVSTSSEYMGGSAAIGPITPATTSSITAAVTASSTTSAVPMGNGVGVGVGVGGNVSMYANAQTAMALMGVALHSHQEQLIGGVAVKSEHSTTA
T2 sequence (P20153 whole entry): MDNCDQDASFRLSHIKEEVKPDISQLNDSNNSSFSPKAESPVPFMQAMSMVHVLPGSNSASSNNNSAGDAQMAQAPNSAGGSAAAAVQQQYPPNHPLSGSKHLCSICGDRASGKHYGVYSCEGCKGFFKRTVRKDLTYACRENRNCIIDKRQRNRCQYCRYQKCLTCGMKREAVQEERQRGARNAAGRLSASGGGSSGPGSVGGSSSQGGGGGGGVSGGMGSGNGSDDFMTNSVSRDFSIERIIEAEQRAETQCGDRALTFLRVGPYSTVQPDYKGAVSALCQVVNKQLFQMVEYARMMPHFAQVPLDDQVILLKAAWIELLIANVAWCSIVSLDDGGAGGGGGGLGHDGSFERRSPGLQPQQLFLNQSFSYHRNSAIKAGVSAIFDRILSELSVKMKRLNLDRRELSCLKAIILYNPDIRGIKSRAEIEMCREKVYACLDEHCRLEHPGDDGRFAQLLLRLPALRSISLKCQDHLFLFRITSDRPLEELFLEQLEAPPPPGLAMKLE

Ecdysone receptor [3] = biological target: T3, Ecdysone receptor (Bombyx mori, UniProt P49881); assay: (§2) Agonist activity at ecdysone receptor in Bombyx mori Bm5 cells after 24 hr by luciferase reporter gene assay; type: cell-based
T3 sequence (P49881 whole entry): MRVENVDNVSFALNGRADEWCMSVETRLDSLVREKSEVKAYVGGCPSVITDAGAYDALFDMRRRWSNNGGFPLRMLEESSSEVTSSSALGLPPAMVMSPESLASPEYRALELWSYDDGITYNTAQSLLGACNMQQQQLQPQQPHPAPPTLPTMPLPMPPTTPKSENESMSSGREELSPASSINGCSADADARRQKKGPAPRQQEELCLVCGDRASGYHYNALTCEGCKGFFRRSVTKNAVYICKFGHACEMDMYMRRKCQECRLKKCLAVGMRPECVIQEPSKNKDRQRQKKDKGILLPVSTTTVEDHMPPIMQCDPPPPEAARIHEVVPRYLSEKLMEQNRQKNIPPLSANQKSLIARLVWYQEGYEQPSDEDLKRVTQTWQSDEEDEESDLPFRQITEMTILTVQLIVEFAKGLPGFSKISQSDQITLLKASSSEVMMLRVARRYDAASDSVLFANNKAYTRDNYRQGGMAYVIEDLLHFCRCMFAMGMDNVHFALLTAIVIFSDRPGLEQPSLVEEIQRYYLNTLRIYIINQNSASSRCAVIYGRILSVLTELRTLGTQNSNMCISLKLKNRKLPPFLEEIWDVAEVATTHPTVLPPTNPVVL

Ecdysone receptor [4] = biological target: T2, Ecdysone receptor; assay: Agonist activity at ecdysone receptor in Drosophila melanogaster B2 cells assessed as reduction in cell density
[5] = biological target: T1, Ecdysone receptor (Drosophila melanogaster); assay: as §1; type: cell-based
[6] = biological target: T4, Ecdysone receptor (Bombyx mori) (UniProt P49881); assay: as §2; type: cell-based
T4 sequence (whole entry): T3 sequence (P49881 whole entry)

[7] = biological target: T1, Ecdysone receptor (Drosophila melanogaster); assay: Agonist activity at ecdysone receptor in Drosophila melanogaster S2 cells at 10 uM after 24 hr by luciferase reporter gene assay relative to 20-hydroxyecdysone; type: cell-based
[8] = Cytotoxicity against Drosophila melanogaster S2 cells at 10 to 100 uM after 24 hr by CellTiter assay; type: cell-based; details: s2, 24 h

CC(C)(C)N(NC(=O)c1ccccc1Cl)C(=O)c1ccccc1Cl
Efficacy [1]: 48%
EC50 (Ecdysone receptor [2]): 105000 nM
EC50 (Ecdysone receptor [3]): 331 nM
EC50 (Ecdysone receptor [4]): 2570 nM

Cc1ccccc1C(=O)N(NC(=O)c1ccccc1)C(C)(C)C
Efficacy [1]: 45%
EC50 (Ecdysone receptor [2]): 120000 nM
EC50 (Ecdysone receptor [3]): 224 nM
EC50 (Ecdysone receptor [4]): 3800 nM

Cc1ccc(NC2CCN(C(=O)c3ccc(Cl)cc3)CC2)cc1
pEC50 [5]: inactive
pEC50 [6]: inactive

CC(C)(C)N(NC(=O)c1ccccc1)C(=O)c1ccccc1[N+](=O)[O-]
Efficacy [1]: 86%
EC50 (Ecdysone receptor [2]): 15500 nM
EC50 (Ecdysone receptor [3]): 224 nM
EC50 (Ecdysone receptor [4]): 1100 nM

CCc1ccc(C(=O)NN(C(=O)c2ccccc2Cl)C(C)(C)C)cc1
Efficacy [1]: 71%
EC50 (Ecdysone receptor [2]): 15500 nM
EC50 (Ecdysone receptor [3]): 5.75 nM
EC50 (Ecdysone receptor [4]): 219 nM

Cc1ccc(NC2CC(C)N(C(=O)c3ccc(C(C)(C)C)cc3)c3ccc(C)cc32)cc1 (stereo not drawn)
pEC50 [5]: inactive
pEC50 [6]: inactive

Cc1ccc(C(=O)NN(C(=O)c2ccccc2Cl)C(C)(C)C)cc1
Efficacy [1]: 79%
EC50 (Ecdysone receptor [2]): 3240 nM
EC50 (Ecdysone receptor [3]): 18.6 nM
EC50 (Ecdysone receptor [4]): 219 nM

COc1ccccc1C(=O)N(NC(=O)c1ccccc1)C(C)(C)C
Efficacy [1]: 44%
EC50 (Ecdysone receptor [2]): 120000 nM
EC50 (Ecdysone receptor [3]): 525 nM
EC50 (Ecdysone receptor [4]): 3800 nM

CC(C)(C)N(NC(=O)c1ccccc1)C(=O)c1ccccc1Cl
Efficacy [7]: 57%
EC50 (Ecdysone receptor [2]): 8510 nM
EC50 (Ecdysone receptor [3]): 75.9 nM

Cc1ccc(NC2CCN(C(=O)c3ccc(Cl)cc3)c3ccccc32)cc1 (stereo not drawn)
pEC50 [5]: inactive
pEC50 [6]: inactive

CC(C)(C)N(NC(=O)c1ccccc1)C(=O)c1ccccc1 [RH-5849]
Activity [8]: Non-toxic
Efficacy [1]: 62%
EC50 (Ecdysone receptor [2]): 37200 nM
EC50 (Ecdysone receptor [3]): 427 nM
EC50 (Ecdysone receptor [4]): 1820 nM

CCc1ccc(C(=O)NC2(C(=O)c3cc(C)cc(C)c3)CCCCC2)cc1
Efficacy [7]: 4%
EC50 (Ecdysone receptor [2]): > 10000 nM

CCc1ccc(C(=O)NN(C(=O)c2cc(C)cc(C)c2)C(C)(C)C)cc1 [TEBUFENOZIDE]
Efficacy [7]: 52%
Activity [8]: Non-toxic
EC50 (Ecdysone receptor [2]): 6610 nM
EC50 (Ecdysone receptor [3]): 1.23 nM
EC50 (Ecdysone receptor [4]): 525 nM

CCCc1ccc(C(=O)NN(C(=O)c2ccccc2Cl)C(C)(C)C)cc1
Efficacy [7]: 52%
EC50 (Ecdysone receptor [2]): 9770 nM
EC50 (Ecdysone receptor [3]): 9.12 nM
